From patent US20250248393A1, “METHOD OF RELEASING A SEMIOCHEMICAL IN THE ENVIRONEMENT BY PASSIVE DIFFUSION, SYSTEM AND MEANS, ESPECIALLY STICKS, TO THIS END, AND USES THEREOF” (SIGNS, priority 2024, published 2025)

Key:
Type in all cases: physicochemical
[1] = Indirect assay of rod diffuser solution (GC/FID); conditions: stick diffuser solution, despecified pheromone
Protocol: Solution integrity was checked at each analysis time. Before each indirect assay, the vial was weighed to visualize mass loss over time. Each vial contained six sticks. • Specifications: the solution must lose mass over time. • Result: Compliant—See FIG. 9 This is the same analytical method as for the diffuser block study, only the sample preparation differs. 1.25 g of solution were weighed into a 25 mL volumetric flask and the volume made up to the mark with acetone. The resulting solution is transferred to a 1.5 mL GC vial for analysis. This is exactly the same calibration range as for the diffuser block study.

[2] = F3P PCDS direct diffusion (SPME GC/MS); conditions: 40 mL, 6 capillaries
Protocol: For this study, three diffusers each containing 40 mL of product and 6 capillaries were prepared and diffused. Every Monday, Wednesday and Friday, pheromone diffusion in the air was monitored by GC/MS and SPME (Solid Phase Micro Extraction) until no liquid remained.
Experimentally, the device studied was placed in a closed space (in our case an upturned aquarium) containing the SPME fiber. The set-up si the same as the set-up shown in Section D/above and in FIG. 24. The SPME fiber was left for 2 hours to give the molecules time to absorb onto the fiber, then the fiber was injected into the GC/MS instrument for analysis. Pheromone diffusion over time was then studied.
Same elements as in Section E/V. C. are reproduced in this section.

[3] = Indirect assay of diffuser blocks (GC/FID, pheromone remaining in the block); conditions: despecified pheromone
Protocol: Analyses were carried out using the gas chromatography (GC) technique with a flame ionization detector (FID), commonly known as GC/FID. The instrument used was the Shimadzu GC2025.® • Injection: Quantity injected: 1 μL, split 50:1, temperature: 230° C. • Separation: DB-WAX column (Agilent), length: 20 m, diameter: 180 μm, film thickness: […] • Carrier gas: Helium (He) • Analysis time: 11.50 min (not including time to return to equilibrium between each analysis) injection). • Detection: FID, temperature: 250° C., flow rates: H2: 40 mL/min, Air: 400 mL/min, Nitrogen (make-up): 30 mL/min. To obtain a representative sample, “cores” were drilled at various positions in the block and then collected. 2.5 g of gel were weighed into a 50 mL volumetric flask and the volume made up to the beginning of the neck of the flask with acetone. The flask was then placed in an ultrasonic bath for one hour until the block was dissolved (a white precipitate was obtained), then acetone was added to the mark. An aliquot of this solution was placed in a syringe fitted with a syringe filter and filtered to obtain a translucent solution. The resulting solution was transferred to a 1.5 mL GC vial for analysis. The assays were carried out using a calibration range.

[4] = F3 sticks device, direct diffusion, 40 mL and four sticks (SPME GC/MS); conditions: four sticks
Protocol: Three devices containing 40 mL of F3 feline facial pheromone product and four rattan sticks were prepared and left on diffusion. Every Monday, Wednesday and Friday, the diffusion of the pheromone in air was checked by analysis by gas chromatography coupled with mass spectrometer (GC/MS) and SPME (solid phase microextraction) until there is no liquid left (about 22 days).
To that purpose, the studied device was taken and placed into a closed space (in our case an aquarium turned over) containing the SPME fiber as shown on FIG. 24.
The SPME fiber was left for two hours to give the time for the molecules to adsorb on the fiber, then the fiber was injected into the GC/MS instrument for analysis.
Analysis were carried out using gas chromatography with mass spectrometer. The instrument was a GCMS QP2010SE® from Shimadzu with an AOC6000® Autosampler. The separation was performed on a ZB-5 MS® column (30 m×0.25 mm×0.25 μm, stationary phase: 95% Dimethylpolysiloxane, 5% Phenyl-Arylene) from Phenomenex. The GC oven temperature was initially held at 100° C. for 1 minute then increased at a pace of 10° C./min to 120° C. and left at this temperature for 3 minutes. Finally, the oven temperature was increased at a pace of 10° C./min to 240° C. and left at this temperature for 10 minutes. The carrier gas was helium at 1 mL/min. Analysis were performed in split mode using a split/splitless injector (Temperature: 250° C., split: 1:20). The SPME fiber was directly injected into the injector and left for 30 minutes. Separated molecules were detected using a mass spectrometer which was operated in electron impact ionization (EI) in both full scan (FS) and single ion monitoring (SIM) modes, so called FASST (Fast Automated SCAN/SIM type) mode. The interface temperature was set at 300° C. and electron impact source temperature at 250° C. The analyser was a quadrupole.
For the measurement of the relative quantity of active ingredient spreading in air, the area of the chromatographic peak corresponding to the compound was measured using Shimadzu GCMS-Solution software.

[5] = F3 migration along the stick (top 1 cm, GC/MS); conditions: F3, five sticks
Protocol: Three devices containing 40 mL of F3 feline facial pheromone product and five […] sticks were prepared and left on diffusion. A t=1 day, T=3 days, T=10 days, T=15 days and T=22 days after preparation of the devices, one stick was taken on each device and 1 cm of the top of each stick was cut, then extracted with acetone 1 h in an ultrasonic bath and analysed by gas chromatography coupled with mass spectrometry (GC/MS). The same analytical parameters were used for the study C with a liquid injection (injected quantity: […]) Blank analysis and matrix blank analysis were also performed.

| Compound | % of the active ingredient in the pheromone ([1]; day 0) [%] | % of the active ingredient in the pheromone ([1]; day 7) [%] | % of the active ingredient in the pheromone ([1]; day 14) [%] | % of the active ingredient in the pheromone ([1]; day 21) [%] | direct diffusion over time [2] | % of the active ingredient in the pheromone ([3]; day 0) [%] | % of the active ingredient in the pheromone ([3]; day 7) [%] | % of the active ingredient in the pheromone ([3]; day 14) [%] | % of the active ingredient in the pheromone ([3]; day 21) [%] | % of the active ingredient in the pheromone ([3]; day 28) [%] | direct diffusion over time [4] | quantity on the top of the stick over time [5] | relative quantity on the top of the stick [5] |
| --- | --- | --- | --- | --- | --- | --- | --- | --- | --- | --- | --- | --- | --- |
| CCCCCCCC/C=C\CCCCCCCC(=O)OC [methyl oleate, methyl (Z)-octadec-9-enoate] | 30.8 | 30.8 | 30.7 | 30.8 | increased over time | 30.4 | 30.6 | 30.6 | 30.7 | 30.7 | slight increase of the diffusion over time | more pronounced increase of their quantities over time | major compound found on the top of the stick |
| CCCCCCCCCCCCCCCC(=O)OC [methyl palmitate, methyl hexadecanoate] | 27.3 | 27.3 | 27.2 | 26.2 | increased over time | 27.2 | 27.2 | 27.1 | 27.1 | 27.1 | slight increase of the diffusion over time | more pronounced increase of their quantities over time |  |
